Assay results reported in US8791132B2, “Compounds and methods for treatment of hypertension” (Medivation Technologies, Inc., priority 2011, dated 2014).
Where “and” joins values, the source holds several entries; their conditions need not be identical. Identical values can stand only once.

Experiments:
[1] = biological target: T1, human recombinant adrenergic α2B receptor (Homo sapiens, UniProt P18089); test: Radioligand binding, adrenergic α2B ([3H]Rauwolscine); conditions: for Percentage inhibition of ligand binding, Adrenergic α2B (0.03 μM): compound at 0.03 μM; for Percentage inhibition of ligand binding, Adrenergic α2B (0.03 μM) / inhibition at 0.03 µM / inhibition at 0.1 µM: [3H]Rauwolscine, repeat datapoints each shown; for Ki: read-out: Ki α2B; for inhibition at 0.03 µM: read-out: Percentage inhibition of ligand binding, Adrenergic α2B (0.03 μM), compound at 0.03 μM; for inhibition at 0.1 µM: read-out: Percentage inhibition of ligand binding, Adrenergic α2B (0.1 μM), compound at 0.1 μM
T1 construct: expressed in transfected cells; host or cells: CHO-K1
T1 sequence (P18089 1-450): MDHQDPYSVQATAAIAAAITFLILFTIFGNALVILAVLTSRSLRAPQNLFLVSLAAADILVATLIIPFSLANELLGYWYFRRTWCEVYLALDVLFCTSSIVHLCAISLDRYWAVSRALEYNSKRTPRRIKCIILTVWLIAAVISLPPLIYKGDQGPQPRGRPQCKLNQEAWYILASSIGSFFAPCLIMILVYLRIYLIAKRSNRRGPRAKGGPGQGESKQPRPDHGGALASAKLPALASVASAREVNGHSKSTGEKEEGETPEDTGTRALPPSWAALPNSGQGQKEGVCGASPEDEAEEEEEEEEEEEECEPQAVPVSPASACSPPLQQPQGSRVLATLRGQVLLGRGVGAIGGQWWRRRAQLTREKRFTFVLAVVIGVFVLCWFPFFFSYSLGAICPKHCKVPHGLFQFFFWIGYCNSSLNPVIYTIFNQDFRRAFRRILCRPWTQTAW
How it was run: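 Readout: percent inhibition of specific [3H]Rauwolscine binding, measured by filtration and counting. Conditions: CHO-K1 cell-expressed receptor, 2.5 nM radioligand, 60 min, 25° C, Tris-HCl pH 7.4 buffer with MgCl2, EDTA, BSA. Non-specific binding: 10 μM Prazosin.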

[2] = biological target: T2, human recombinant adrenergic α2A receptor (Homo sapiens, UniProt P08913); test: Radioligand binding, adrenergic α2A ([3H]MK-912); conditions: for Percentage inhibition of ligand binding, Adrenergic α2A (0.1 μM): compound at 0.1 μM; for inhibition at 0.03 µM: read-out: Percentage inhibition of ligand binding, Adrenergic α2A (0.03 μM), compound at 0.03 μM; for inhibition at 0.1 µM: read-out: Percentage inhibition of ligand binding, Adrenergic α2A (0.1 μM), compound at 0.1 μM
T2 construct: expressed in transfected cells; host or cells: insect Sf9 cells
T2 sequence (P08913 1-465): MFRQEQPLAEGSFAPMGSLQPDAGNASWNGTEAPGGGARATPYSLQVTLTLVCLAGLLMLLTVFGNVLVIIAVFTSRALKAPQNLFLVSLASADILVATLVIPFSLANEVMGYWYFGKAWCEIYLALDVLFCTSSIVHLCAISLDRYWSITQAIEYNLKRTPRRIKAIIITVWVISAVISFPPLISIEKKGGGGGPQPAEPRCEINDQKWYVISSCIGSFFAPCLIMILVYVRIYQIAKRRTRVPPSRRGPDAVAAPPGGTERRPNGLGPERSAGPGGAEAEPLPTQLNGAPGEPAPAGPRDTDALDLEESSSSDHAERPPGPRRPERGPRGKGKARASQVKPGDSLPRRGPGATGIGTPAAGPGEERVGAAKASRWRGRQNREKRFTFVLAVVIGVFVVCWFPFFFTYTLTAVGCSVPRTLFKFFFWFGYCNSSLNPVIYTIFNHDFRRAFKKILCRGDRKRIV
How it was run: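 Sf9 membranes, 1 nM [3H]MK-912, 60 min, 25 °C, Tris-HCl pH 7.4/MgCl2/EDTA buffer. NSB: 10 μM WB-4101. Filtration, counting; % inhibition of specific binding.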

[3] = biological target: T3, rat adrenergic α1B receptor (Rattus norvegicus, UniProt P15823); test: Radioligand binding, adrenergic α1B ([3H]Prazosin); conditions: [3H]Prazosin, repeat datapoints each shown; for Percentage inhibition of ligand binding, Adrenergic α1B (0.1 μM): compound at 0.1 μM; for inhibition at 0.03 µM: read-out: Percentage inhibition of ligand binding, Adrenergic α1B (0.03 μM), compound at 0.03 μM; for inhibition at 0.1 µM: read-out: Percentage inhibition of ligand binding, Adrenergic α1B (0.1 μM), compound at 0.1 μM; for Percentage inhibition of ligand binding, Adrenergic α1B (0.03 μM): compound at 0.03 μM
T3 construct: rat adrenergic α1B receptor obtained from Wistar Rat liver; from tissue; host or cells: Wistar rat liver
T3 sequence (P15823 1-515): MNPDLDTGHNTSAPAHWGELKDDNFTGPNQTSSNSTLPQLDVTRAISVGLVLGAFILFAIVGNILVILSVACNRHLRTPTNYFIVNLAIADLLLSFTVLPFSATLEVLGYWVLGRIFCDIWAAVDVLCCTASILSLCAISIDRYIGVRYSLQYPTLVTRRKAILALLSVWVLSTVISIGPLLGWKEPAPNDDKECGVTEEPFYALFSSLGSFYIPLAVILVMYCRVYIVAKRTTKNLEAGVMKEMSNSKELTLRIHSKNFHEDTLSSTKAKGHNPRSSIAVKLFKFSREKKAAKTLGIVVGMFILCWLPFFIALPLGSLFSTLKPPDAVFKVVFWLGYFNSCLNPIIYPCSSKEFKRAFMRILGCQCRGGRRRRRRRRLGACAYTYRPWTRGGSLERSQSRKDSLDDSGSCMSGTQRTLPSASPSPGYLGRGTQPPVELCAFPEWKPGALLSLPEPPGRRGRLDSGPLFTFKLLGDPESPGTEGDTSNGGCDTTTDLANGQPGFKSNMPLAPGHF
How it was run: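 Rat α1B receptor from Wistar rat liver was incubated with 0.25 nM [3H]prazosin for 60 min at 25 °C in 50 mM Tris-HCl, pH 7.4, 0.5 mM EDTA. Non-specific binding was defined with 10 μM phentolamine. Bound radioligand was measured by filtration and counting, reported as percent inhibition of specific binding.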

[4] = [3H]MK-912, repeat datapoints each shown

SMILES	Percentage inhibition of ligand binding, Adrenergic α2B (0.03 μM) [1] [%]	Ki [1] [nM]	inhibition at 0.03 µM [1] [%]	inhibition at 0.1 µM [1] [%]	Ki [2] [nM]	Percentage inhibition of ligand binding, Adrenergic α2A (0.1 μM) [2, 4] [%]	inhibition at 0.03 µM [2, 4] [%]	inhibition at 0.1 µM [2, 4] [%]	Percentage inhibition of ligand binding, Adrenergic α1B (0.1 μM) [3]	inhibition at 0.03 µM [3] [%]	inhibition at 0.1 µM [3] [%]	Percentage inhibition of ligand binding, Adrenergic α1B (0.03 μM) [3] [%]	Percentage inhibition of ligand binding, Adrenergic α2A (0.03 μM) ([2]; compound at 0.03 μM, [3H]MK-912, repeat datapoints each shown, 0.03 µM) [%]
Cc1ccc2c(c1)c1c(n2CC(C)(O)c2cccnc2)CNCC1 (single isomer, unassigned) [128a]	100	0.97	97	104	98.6	34	9	31	45%	14	37		
Cc1ccc2c(c1)c1c(n2CC(O)c2ccncc2)CCN2CCCC12 (single isomer, unassigned) [129c]		0.77	100		88.6				96%	86	94		
Cc1ccc2c(c1)c1c(n2CC(OC(=O)C(C)(C)C)c2ccncc2)CCN(C)C1 (single isomer, unassigned) [130a]	104	1.66	100	107	6.91				66% and 68%			32	
Cc1ccc2c(c1)c1c(n2CC(OC(=O)C(C)(C)C)c2ccncc2)CCN(C)C1 (single isomer, unassigned) [130b]		2.52			72.6	31			8% and 11%			2	13
Cc1ccc2c(c1)c1c(n2CC(O)c2cnn(C)c2)CCN(C)C1 (single isomer, unassigned) [131b, 2-(1,2,3,4-tetrahydro-2,8-dimethylpyrido[4,3-b]indol-5-yl)-1-(1-methyl-1H-pyrazol-4-yl)ethanol]	63	7.95	53	90				11			36		
Cc1ccc2c(c1)c1c(n2CC(O)c2ccncc2C)CCN(C)C1 (single isomer, unassigned) [133b]	88	2.42	87	94	59.5	39	27	34	42%	16	40		
Cc1cnc2c(c1)c1c(n2CCc2cccnc2)CCN2CCCC12 (single isomer, unassigned) [134b, 9-methyl-6-(2-pyridin-3-yl-ethyl)-2,3,4,5,6,10c-hexahydro-1H-3a,6,7-triaza-cyclopenta[c]fluorene]	103	0.43	102		102	29		23	95%	78	93		
Cc1ccc2c(c1)c1c(n2CC(O)c2ccncc2Cl)CCN(C)C1 (single isomer, unassigned) [135a]	42					4			60%				
Cc1ccc2c(c1)c1c(n2CC(O)c2ccncc2Cl)CCN(C)C1 (single isomer, unassigned) [135b]	68					22			30%				
Cc1cnc2c(c1)c1c(n2CC(O)c2ccc(F)cc2)CCN(C)C1 (single isomer, unassigned) [136a]	34							16	54%				
Cc1ccc(CCn2c3c(c4cc(Cl)cnc42)C2CCCN2CC3)cn1 (single isomer, unassigned) [137b]	30					6			23%				
Cc1ccc2c(c1)c1c(n2CC(O)c2ccc(C(N)=O)cc2)CCN(C)C1 (single isomer, unassigned) [139a, 4-[2-(2,8-dimethyl-1,2,3,4-tetrahydro-pyrido[4,3-b]indol-5-yl)-1-hydroxy-ethyl]-benzamide]	101	2.36	88					16			17		
Cc1ccc2c(c1)c1c(n2CC(O)c2ccc(C(N)=O)cc2)CCN(C)C1 (single isomer, unassigned) [139b, 4-[2-(2,8-dimethyl-1,2,3,4-tetrahydro-pyrido[4,3-b]indol-5-yl)-1-hydroxy-ethyl]-benzamide]	59					6			11%				
Cc1ccc2c(c1)c1c(n2CC(O)c2ccc(C#N)nc2)CCN(C)C1 (single isomer, unassigned) [140a, 5-[2-(2,8-dimethyl-1,2,3,4-tetrahydro-pyrido[4,3-b]indol-5-yl)-1-hydroxy-ethyl]-pyridine-2-carbonitrile]	76					11			59%				
Cc1ccc2c(c1)c1c(n2CC(O)c2ccc(C#N)nc2)CCN(C)C1 (single isomer, unassigned) [140b, 5-[2-(2,8-dimethyl-1,2,3,4-tetrahydro-pyrido[4,3-b]indol-5-yl)-1-hydroxy-ethyl]-pyridine-2-carbonitrile]	52					3			18%				
